Test results as given in patent US20240325353A1, “COMPOUND FOR TREATMENT OF COGNITIVE DISORDERS” (Syndesi Therapeutics SA, priority 2021, published 2024).

System: brain activity (BOLD signal)
Experiment: pharmaco-MRI (BOLD) neuroimaging study in conscious rats
Format: in vivo, rat
Conditions: for median number of positive voxels (positive BOLD volume of activation): 20-30 min post injection
Protocol: Test Substance, Reference Substance(s), and Vehicle: the compound of example 1 test substance for dose-dependent change in BOLD signal was provided by Syndesi along with the formula for the vehicle.
Subjects: Forty-eight male Sprague Dawley rats weighing ca 275-300 g were obtained from Charles River Laboratories (Wilmington, MA, USA). Rat were maintained on a 12:12 hour light:dark cycle with a lights on at 0700 hours and allowed access to food and water ad libitum. All rats were acquired and cared for in accordance with the guidelines published in the Guide for the Care and Use of Laboratory Animals (National Institutes of Health Publications No. 85-23, Revised 1985) and adhered to the National Institutes of Health and the American Association for Laboratory Animal Science guidelines.
Acclimation: To reduce the stress associated with head restraint, rats were acclimated to the restraining system (head holder and body tube) one week prior to their actual imaging session. The design of the restraining system (Animal Imaging Research, Holden MA, USA) included a padded head support obviating the need for ear bars helping to reduce animal discomfort while minimizing motion artifact. These acclimation sessions were run each day for 4-5 consecutive days. Rats were briefly anesthetized with 2-3% isoflurane while being secured into the head holder. The forepaws were secured with tape. When fully conscious, the imaging system is placed into a black opaque box “mock scanner” for 30 min with a tape-recording of the MRI pulse sequence to simulate the bore of the magnet and the imaging protocol. A significant decline in respiration, heart rate, motor movements, and plasma corticosterone has been measured when the first and last acclimation periods are compared (King et al., 2005). The reduction in autonomic and somatic measures of arousal and stress improve the signal resolution and quality of the images.
Image Acquisition: Animals were scanned at 300 MHz using a quadrature transmit/receive volume coil built into the rat head holder and restraining system for awake animal imaging (Animal Imaging Research, Holden, MA, USA). The design of the coil provided complete coverage of the brain from olfactory bulbs to brain stem with excellent B1 field homogeneity. Experiments were conducted using a Bruker Biospec 7.0 T/20-cm USR horizontal magnet (Bruker, Billerica, MA, USA) and a 20-G/cm magnetic field gradient insert (ID=12 cm) capable of a 120-μs rise time. At the beginning of each imaging session, a high-resolution anatomical data set was collected using the RARE pulse sequence [22 slice; 1.0 mm; field of view (FOV) 3.0 cm; matrix size 256×256; repetition time (TR) 2.5 s; echo time (TE) 12 ms; NEX 2; 3 min acquisition time]. Functional images were acquired using a multi-slice half-Fourier acquisition single-shot turbo spin echo (HASTE) pulse sequence. Bruker Paravision automatically finds the basic frequency, shims, power requirements for 90° and 180° pulses and sets the receiver gain. A single scanning session acquired 22 slices, 1.0 mm thick, every 6.0 s (TR), using an effective TE of 48 ms, FOV 3.0 cm, matrix size 96×96, NEX 1, and repeated 450 times for a total scanning time of 45 min. The in-plane pixel resolution was 312 μm2.
Data Processing: Data are coregistered to a mean functional image using SPM8's coregistrational code with the following parameters: Quality: 0.97, Smoothing: 0.35 mm, Separation: 0.5 mm. Gaussian smoothing was performed with a FWHM of 0.8 mm. Images were aligned and registered to the 3D rat brain atlas, segmented and labeled with 171 discrete anatomical regions. The alignment process was facilitated by an interactive graphic user interface. The registration process involved translation, rotation and scaling independently and in all three dimensions. Matrices that transformed each subject's anatomy were used to embed each slice within the atlas. […]

O=C1C[C@H](c2cc(F)c(F)c(F)c2)CN1Cn1ncnc1Cl [compound of example 1, (4R)-1-[(5-chloro-1H-1,2,4-triazol-1-yl)methyl]-4-(3,4,5-trifluorophenyl)pyrrolidin-2-one]
median number of positive voxels (positive BOLD volume of activation) (lateral posterior thalamic nucleus, 0.1 mg/kg i.p.): 11
median number of positive voxels (positive BOLD volume of activation) (lateral posterior thalamic nucleus, 0.3 mg/kg i.p.): 3
median number of positive voxels (positive BOLD volume of activation) (lateral posterior thalamic nucleus, 1.0 mg/kg i.p.): 0
median number of positive voxels (positive BOLD volume of activation) (lateral preoptic area, 0.1 mg/kg i.p.): 12
median number of positive voxels (positive BOLD volume of activation) (lateral preoptic area, 0.3 mg/kg i.p.): 3
median number of positive voxels (positive BOLD volume of activation) (lateral preoptic area, 1.0 mg/kg i.p.): 0
median number of positive voxels (positive BOLD volume of activation) (lateral septal nucleus, 0.1 mg/kg i.p.): 34
median number of positive voxels (positive BOLD volume of activation) (lateral septal nucleus, 0.3 mg/kg i.p.): 35
median number of positive voxels (positive BOLD volume of activation) (lateral septal nucleus, 1.0 mg/kg i.p.): 4
median number of positive voxels (positive BOLD volume of activation) (paraventricular nucleus (first entry, P 0.003), 0.1 mg/kg i.p.): 4
median number of positive voxels (positive BOLD volume of activation) (paraventricular nucleus (first entry, P 0.003), 0.3 mg/kg i.p.): 5
median number of positive voxels (positive BOLD volume of activation) (paraventricular nucleus (first entry, P 0.003), 1.0 mg/kg i.p.): 0
median number of positive voxels (positive BOLD volume of activation) (prelimbic ctx, 0.1 mg/kg i.p.): 50
median number of positive voxels (positive BOLD volume of activation) (prelimbic ctx, 0.3 mg/kg i.p.): 32
median number of positive voxels (positive BOLD volume of activation) (prelimbic ctx, 1.0 mg/kg i.p.): 4
median number of positive voxels (positive BOLD volume of activation) (reticular nucleus midbrain, 0.1 mg/kg i.p.): 19
median number of positive voxels (positive BOLD volume of activation) (reticular nucleus midbrain, 0.3 mg/kg i.p.): 18
median number of positive voxels (positive BOLD volume of activation) (reticular nucleus midbrain, 1.0 mg/kg i.p.): 1
median number of positive voxels (positive BOLD volume of activation) (retrosplenial caudal ctx, 0.1 mg/kg i.p.): 43
median number of positive voxels (positive BOLD volume of activation) (retrosplenial caudal ctx, 0.3 mg/kg i.p.): 27
median number of positive voxels (positive BOLD volume of activation) (retrosplenial caudal ctx, 1.0 mg/kg i.p.): 0
median number of positive voxels (positive BOLD volume of activation) (subiculum dorsal, 0.1 mg/kg i.p.): 13
median number of positive voxels (positive BOLD volume of activation) (subiculum dorsal, 0.3 mg/kg i.p.): 12
median number of positive voxels (positive BOLD volume of activation) (subiculum dorsal, 1.0 mg/kg i.p.): 0
median number of positive voxels (positive BOLD volume of activation) (substantia nigra reticularis, 0.1 mg/kg i.p.): 19
median number of positive voxels (positive BOLD volume of activation) (substantia nigra reticularis, 0.3 mg/kg i.p.): 22
median number of positive voxels (positive BOLD volume of activation) (substantia nigra reticularis, 1.0 mg/kg i.p.): 2
median number of positive voxels (positive BOLD volume of activation) (triangular septal nucleus, 0.1 mg/kg i.p.): 4
median number of positive voxels (positive BOLD volume of activation) (triangular septal nucleus, 0.3 mg/kg i.p.): 1
median number of positive voxels (positive BOLD volume of activation) (triangular septal nucleus, 1.0 mg/kg i.p.): 0
brain areas significantly affected by the four treatments (vehicle, 0.1, 0.3, 1.0 mg/kg, of 171 brain regions): 71/171
median number of positive voxels (positive BOLD volume of activation) (ventral lateral striatum, 0.1 mg/kg i.p.): 82
median number of positive voxels (positive BOLD volume of activation) (ventral lateral striatum, 0.3 mg/kg i.p.): 1
median number of positive voxels (positive BOLD volume of activation) (ventral lateral striatum, 1.0 mg/kg i.p.): 0
median number of positive voxels (positive BOLD volume of activation) (ventral medial striatum, 0.1 mg/kg i.p.): 47
median number of positive voxels (positive BOLD volume of activation) (ventral medial striatum, 0.3 mg/kg i.p.): 18
median number of positive voxels (positive BOLD volume of activation) (ventral medial striatum, 1.0 mg/kg i.p.): 0
median number of positive voxels (positive BOLD volume of activation) (ventral orbital ctx, 0.1 mg/kg i.p.): 19
median number of positive voxels (positive BOLD volume of activation) (ventral orbital ctx, 0.3 mg/kg i.p.): 4
median number of positive voxels (positive BOLD volume of activation) (ventral orbital ctx, 1.0 mg/kg i.p.): 1
median number of positive voxels (positive BOLD volume of activation) (ventral subiculum, 0.1 mg/kg i.p.): 26
median number of positive voxels (positive BOLD volume of activation) (ventral subiculum, 0.3 mg/kg i.p.): 25
median number of positive voxels (positive BOLD volume of activation) (ventral subiculum, 1.0 mg/kg i.p.): 3
median number of positive voxels (positive BOLD volume of activation) (ventral tegmental area, 0.1 mg/kg i.p.): 8
median number of positive voxels (positive BOLD volume of activation) (ventral tegmental area, 0.3 mg/kg i.p.): 5
median number of positive voxels (positive BOLD volume of activation) (ventral tegmental area, 1.0 mg/kg i.p.): 0
median number of positive voxels (positive BOLD volume of activation) (visual 1 ctx, 0.1 mg/kg i.p.): 27
median number of positive voxels (positive BOLD volume of activation) (visual 1 ctx, 0.3 mg/kg i.p.): 21
median number of positive voxels (positive BOLD volume of activation) (visual 1 ctx, 1.0 mg/kg i.p.): 0
median number of positive voxels (positive BOLD volume of activation) (zona incerta, 0.1 mg/kg i.p.): 9
median number of positive voxels (positive BOLD volume of activation) (zona incerta, 0.3 mg/kg i.p.): 3
median number of positive voxels (positive BOLD volume of activation) (zona incerta, 1.0 mg/kg i.p.): 0
